Assay results from patent publication US7604990B2, “Methods of regulating differentiation in stem cells” (ES Cell International Pte Ltd., priority 2002, dated 2009).

Tests used:
SPK in MEF = assay: Sphingosine kinase activity in MEF after PDGF; type: cell-based, mouse; settings: PDGF 20 ng/ml
[1] = system: ERKs (Erk1 and Erk2) in hES cells; assay: ERK phosphorylation Western blot in hES cells (Example 1); type: cell-based, human; settings: hES cells, 5 min; S1P 10 μM, LPA 50 M, PDGF 20 ng/ml
Procedure: RT-PCR for LPL receptors (A, B), PDGFR-[…] (alpha) and PDGFR-[…] (beta) (C), SPK-1 and SPK-2 (D), with (+) or without (−) RT. Immunostaining of hES cells with Hoechst 33342 (E, H), PDGFR-[…] (F) or PDGFR-[…] (I) and GCTM-2 (G, J) antibodies. S1P, LPA and PDGF stimulate ERKs phosphorylation in hES cells. (K) Western blots experiment were performed using protein lysate from hES cells. Cells were pre-treated or not with U0126 (30 μM, 1 hr) and incubated for 5 min in the absence (C, control) or presence of S1P (S, 10 μM), LPA (L, […]) or PDGF (P, 20 ng/ml). The phosphorylation of Erk1 and Erk2 (P-Erk1 and P-Erk2) was assessed by immunoblotting with a polyclonal anti-active MAP kinase as described in Materials and Methods. After a stripping procedure, the same blots were reprobed with a monoclonal anti-MAP kinase, allowed the detection of Erk1 and Erk2.
hES-3 cells plated without MEF for 24 hrs were depleted of serum for a further 18 hrs. Cells pre-treated or not with U0126 (Sigma, 30 μM, 1 hr), were incubated in the presence of the different agents for 5 min and were lysed by removal of the supernatants and addition of a reducing loading buffer containing 1 mM sodium orthovanadate (Sigma). Protein lysates (approx. 80 μg) were separated by SDS-polyacrylamide gel electrophoresis (10% polyacrylamide, w/v), transferred to nitrocellulose (Hybond-nitrocellulose, Amersham) and immunoblotting was carried out using rabbit polyclonal anti-active mitogen-activated protein (MAPK) antibodies raised against a dually phosphorylated MAPK peptide (Promega, Madison, Wis., USA). Peroxidase-coupled secondary antibody (Dako) was detected by exposure of autoradiographic films in the presence of a chemiluminescent detection reagent (ECL, Amersham). Stripping of antibodies was achieved and membranes were then reprobed with rabbit polyclonal anti-ERK1/2 antibodies (Promega), and then with peroxidase-coupled secondary antibodies (Dako). Membranes probed with either rabbit polyclonal anti-active p38 (Promega) or rabbit polyclonal anti-active JNK (Promega) antibodies were also performed, using the same procedure as described above.

[2] = system: sphingosine kinase (SPK) in hES cells; assay: Sphingosine kinase activity in hES cells after PDGF; type: cell-based, human; settings: PDGF 20 ng/ml
Procedure: hES-3 cells plated without MEF for 24 hr and depleted of serum for a further 18 hr were incubated in the presence of PDGF (20 ng/ml) for various time periods and were harvested and lysed by sonication (2 W for 30 s at 4° C.) in lysis buffer containing 50 mM Tris/HCl (pH 7.4), 10% glycerol, 0.05% Triton X-100, 150 mM NaCl, 1 mM dithiothreitol, 2 mM Na3VO4, 10 mM NaF, 1 mM EDTA and protease inhibitors (Complete™, Roche, Mannheim, Germany). SPK activity was determined using D-erythro-sphingosine and […] as substrates, as previously described^19. Protein concentrations in cell homogenates were determined with Coomassie Brilliant Blue reagent (Bio-Rad, Regent Park, NSW, Australia) using bovine serum albumin as standard.

hES cells [3] = assay: GCTM-2 quantification by alkaline phosphatase activity, hES cells on MEF, serum-free (Example 1); type: cell-based, human; settings: 8 days serum-free on MEF; S1P 10 μM, PDGF 20 ng/ml; n=7
Procedure: (A) hES cells grown with MEF, before the depletion of serum from the medium. (B, C, D, E) hES cells grown without serum after 8 days, in the absence (B) or in the presence of S1P (10 μM) (C), PDGF (20 ng/ml) (D), S1P (10 μM) plus PDGF (20 ng/ml) (E). (F) hES cells grown without serum, in the presence or in the absence (control) of S1P (10 μM), PDGF (20 ng/ml), S1P (10 μM) plus PDGF (20 ng/ml). In A-E, data are representative of at least 3 independent experiments. In F, data expressed as percentages of alkaline phosphatase activity in absence of serum for eight days (% of control), are the means±SEM of at least 2 independent experiments, each run in triplicate.
hES-3 cells plated with MEF, were fixed in ethanol and immunostained with GCTM-2 and then with an alkaline phosphatase-coupled secondary antibody (Dako). The activity of alkaline phosphatase was detected by adding a solution of 4-nitrophenyl phosphate (Roche, Mannheim, Germany), followed by reading the optical density (OD) at 405 nm. In order to validate the technique as a relevant indicator of the proportion of GCTM-2 positive cells, standard curves were done with the teratocarcinoma cell line GCT27C4, known to express GCTM-2.

hES cells [4] = assay: Double immunostaining GCTM-2/PCNA of dissociated hES cells (Example 4); type: cell-based, human; settings: 4 days without serum; S1P 10 μM
Procedure: Double staining experiments were performed using antibodies for PCNA and GCTM-2.
For immunostaining, hES-3 cells were coated on chamber slides after mechanical dissociation, in order to obtain a monolayer culture. The day following the plating, cells were incubated with the different agents in a media depleted in serum. Media was changed the 2nd day and the cells were fixed 4 days after the first treatment.
Cells were washed in PBS, fixed with MeOH, and immunostaining was performed, using the specific stem cell marker antibody GCTM-2, and the specific cell proliferation marker PCNA. Cells were then washed and the nucleuses were stained with Hoechst-33342 (1 μg/ml). Slides were mounted and then observed by fluorescent microscopy. Cells were then counted in order to determine the ratio of proliferating stem cells within the overall population.

Row | Compound | activation of SPK in MEF (SPK in MEF) | phosphorylation of ERKs [1] | duration of SPK activity enhancement [2] | SPK activity ([2]; 30 min, value printed in brackets after 'basal values', n=3) [nmol/min/mg] | SPK activity relative to basal values ([2]; after 30 min of incubation) [fold] | more GCTM2+ than the control cells (alkaline phosphatase activity) (hES cells [3]) [%] | proliferating rate of hES cells (PCNA) versus control (hES cells [4])
1 | PDGF | did not induce a significant statistical activation of SPK | stimulated the phosphorylation of ERKs | at least 60 min | 75.3 ± 3.92 | 1.6 | 16.6±7.0 | 
2 | CCCCCCCCCCCCC/C=C/[C@@H](O)[C@@H](N)COP(=O)(O)O [S1P, Sphingosine-1-phosphate] |  | stimulated the phosphorylation of ERKs |  |  |  |  | no marked difference
